Laboratory results as given in patent US12116388B2, “Amylin receptor agonists” (Novo Nordisk A/S, priority 2022, dated 2024).
Starred links: 1 amine or outer side, 2 acyl side, 3 side chain; linkers in the order of their positions; H or OH if unused. Positions of bridges follow the written chain, without caps; N, C: chain ends. Residues, ends and D or L forms follow the SMILES beside them. *: point of attachment. C20 diacid = O=C(O)CCCCCCCCCCCCCCCCCCC(=O)*; C18 diacid = O=C(O)CCCCCCCCCCCCCCCCC(=O)*; γGlu = O=C(O)[C@H](CCC(=O)[*:2])N[*:1]

Key:
[1] = Oral pharmacokinetic profiles in Beagle dogs (SNAC tablets); format: in vivo; settings: oral tablet: 3 mg compound, 300 mg SNAC, 7.7 mg magnesium stearate
Protocol: To be able to evaluate oral exposure following tablet dosing, tablet compositions comprising the test substance and SNAC (sodium N-(8-(2-hydroxybenzoyl)amino)caprylate) were prepared by mixing test substance with roller compacted SNAC and magnesium stearate as, e.g., described in WO 2019/149880.
This assay was performed to measure the oral bioavailability of a compound. The assay determined the exposure of test compound following oral administration in Beagle dogs as described by relevant pharmacokinetic parameters and plasma concentration curves.
Preparation of tablets for oral administration: tablets containing test compound used for the assay described herein were immediate release SNAC-based tablets. The test compound was spray-dried as neutral sodium salt (pH 7-8). Dry granulation was carried out by roller compaction on a Gerteis MINI-PACTOR. Tablets containing 3 mg test compound, 300 mg sodium N-(8-(2-hydroxybenzoyl)amino)caprylate (SNAC) and 7.7 mg magnesium stearate were produced on at Kilian Style One using 7.2×12 mm punches.
Determination of the absorption following oral administration: eight (8) male Beagle dogs, 1 to 8 years of age and weighing approximately 10-15 kg at the start of the studies, were used. The dogs were group-housed in pens (12 hours light:12 hours dark), and fed individually and restrictedly once daily with Royal Canin Medium Adult dog (Royal Canin Products, China Branch, or Brogaarden A/S, Denmark). Exercise and group social were permitted daily, whenever possible. The dogs were used for repeated pharmacokinetic studies with a suitable wash-out period between successive dosing. An appropriate acclimatisation period was given prior to initiation of the first pharmacokinetic study. All handling, dosing and blood sampling of the animals were performed by trained and skilled staff. Before the studies the dogs were fasted overnight and from 0 to 4 h after dosing. Besides, the dogs were restricted to water 1 hour before dosing until 4 hours after dosing, but otherwise had ad libitum access to water during the whole period.
Tablets containing the test compound were administered in the following manner: 10 min prior to tablet administration the dogs were dosed subcutaneously with approximately 3.2 nmol/kg of glucagon. The tablets were placed in the back of the mouth of the dog to prevent chewing. The mouth was then closed, and 10 mL of tap water was given by a syringe to facilitate swallowing of the tablet. Blood was sampled at predefined time points for up till 288 hours after dosing to adequately cover the full plasma concentration-time absorption profile of the compound. For each blood sampling time point approximately 1.2 mL of whole blood was collected in a 1.5 mL EDTA coated tube, and the tube was gently turned to allowing mixing of the sample with the EDTA. Then, the blood samples were kept on ice until centrifugation (4 min, 4° C., 4000 rpm). Plasma was pipetted into Micronic tubes on dry ice and kept at −20° C. until analysis. Blood samples were taken as appropriate, for example from a venflon in the cephalic vein in the front leg for the first 2 hours and then with syringe from the jugular vein for the rest of the time points (the first few drops were allowed to drain from the venflon to avoid heparin saline from the venflon in the sample).
Bioanalysis was carried out as follows: plasma concentrations of test compound were assayed by plasma protein precipitation and analysed by liquid chromatography-mass spectrometry (LC-MS). Calibrators were prepared by spiking blank dog plasma with analytes to reach the final concentrations in the range typically from 0.5 to 200 nM. Calibrators, plasma blanks or study samples were prepared for LC-MS by protein precipitation by adding 3 volumes of ethanol followed by centrifugation at 4000 rpm at 4° C. for 1 h. The supernatant was diluted with 2 volumes of Milli-Q water containing 0.1% formic acid before injection on the LC-MS system. […]

[2] = target: T1, human amylin receptor (hAMYR3) (Homo sapiens, UniProt O60896+P30988); test: Human amylin receptor (hAMYR3) in vitro potency assay, CRE-luciferase reporter in BHK cells; format: cell-based; settings: BHK hAMYR3/CRE-Luc cells, 3 hours incubation, assay buffer with 1% ovalbumin
T1 construct: host or cells: BHK (Baby Hamster Kidney), Hollex-1 cell line further transfected with RAMP3
In short: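 Luminescence from a CRE-driven luciferase reporter reflects cAMP-mediated receptor activation. Peptides were serially diluted (7 concentrations, 7-fold steps, typically starting near 10 nM) in buffer with 1% ovalbumin and applied for 3 h at 37 °C to BHK cells co-expressing calcitonin receptor (a) and RAMP3.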

[3] = target: T2, human calcitonin receptor (hCTR) (Homo sapiens, UniProt P30988); test: Human calcitonin receptor (hCTR) in vitro potency assay, CRE-luciferase reporter in BHK cells; format: cell-based; settings: BHK hCTR/CRE-Luc cells, 3 hours incubation, assay buffer with 1% ovalbumin; read-out: hCalcR potency, EC50
T2 construct: host or cells: BHK (Baby Hamster Kidney), Hollex-1 cell line
T2 sequence (P30988 25-474): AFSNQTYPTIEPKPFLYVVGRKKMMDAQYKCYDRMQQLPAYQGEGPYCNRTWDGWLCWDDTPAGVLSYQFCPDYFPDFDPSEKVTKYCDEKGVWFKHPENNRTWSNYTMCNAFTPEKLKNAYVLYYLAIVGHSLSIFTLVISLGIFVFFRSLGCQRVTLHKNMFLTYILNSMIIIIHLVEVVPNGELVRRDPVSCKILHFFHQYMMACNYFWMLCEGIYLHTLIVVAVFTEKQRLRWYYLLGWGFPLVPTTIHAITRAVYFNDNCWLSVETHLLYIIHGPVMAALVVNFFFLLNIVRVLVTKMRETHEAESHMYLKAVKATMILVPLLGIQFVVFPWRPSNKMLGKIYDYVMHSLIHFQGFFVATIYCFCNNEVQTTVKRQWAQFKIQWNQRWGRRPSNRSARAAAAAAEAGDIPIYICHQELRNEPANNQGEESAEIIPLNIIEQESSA
In short: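 Luciferase signal from a CRE reporter served as the cAMP read-out after 3 h, 37 °C exposure to compound. Cells were stably transfected BHK expressing hCTR, and the buffer was phenol-red-free DMEM with 10 mM HEPES and 1% ovalbumin. Compounds were tested as 7-point, 7-fold dilutions, often from about 10 nM.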

T1 sequence (O60896 24-148, one chain of several): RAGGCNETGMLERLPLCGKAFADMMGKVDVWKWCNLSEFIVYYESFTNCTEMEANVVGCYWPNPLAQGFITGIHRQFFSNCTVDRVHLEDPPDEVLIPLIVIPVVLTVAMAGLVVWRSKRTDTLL

Structure (SMILES) | Cmax/D [1] | EC50 [2] | EC50 [3] | half-life ([1]; male, dog, plasma, read-out: T½ (converted)) | AUC/D [1]
CC[C@H](C)[C@H](NC(=O)[C@@H]1CCCN1C(=O)CNC(=O)[C@H](Cc1ccccc1)NC(=O)[C@H](CC(N)=O)NC(=O)[C@H](CC(N)=O)NC(=O)[C@H](CO)NC(=O)[C@H](CO)NC(=O)[C@H](Cc1c[nH]cn1)NC(=O)[C@H](CCCNC(=N)N)NC(=O)[C@H](CC(C)C)NC(=O)[C@H](Cc1ccccc1)NC(=O)[C@H](CCC(=O)O)NC(=O)[C@H](C)NC(=O)[C@H](CC(C)C)NC(=O)[C@H](CCCNC(=N)N)NC(=O)[C@H](CCC(N)=O)NC(=O)[C@@H](NC(=O)[C@H](C)NC(=O)[C@@H]1CSSC[C@H](NC(=O)[C@H](CCCCN)NC(=O)CC[C@H](NC(=O)CCCCCCCCCCCCCCCCCCC(=O)O)C(=O)O)C(=O)N[C@@H](CC(N)=O)C(=O)N[C@@H]([C@@H](C)O)C(=O)N[C@@H](C)C(=O)N[C@@H]([C@@H](C)O)C(=O)N1)[C@@H](C)O)C(=O)N[C@@H](CC(C)C)C(=O)N1CCC[C@H]1C(=O)N1CCC[C@H]1C(=O)N[C@H](C(=O)N[C@@H](CCC(N)=O)C(=O)N[C@H](C(=O)NCC(=O)N[C@@H](CO)C(=O)N[C@@H](CC(N)=O)C(=O)N[C@H](C(=O)N1CCC[C@H]1C(N)=O)[C@@H](C)O)C(C)C)[C@@H](C)O [Compound 1, N^1Alpha-[(4S)-4-carboxy-4-(19-carboxynonadecanoylamino)butanoyl]-[Glu14,Arg17,Pro25,Pro28,Pro29,Gln31,Pro37]-human amylin, reference compound] ({C20 diacid-γGlu}-KCNTATCATQRLAEFLRHSSNNFGPILPPTQVGSNTP-NH2; disulfide 2-7) | 0.057 kg/L |  |  |  | 
CC[C@H](C)[C@H](NC(=O)[C@H](C)NC(=O)CNC(=O)[C@H](Cc1ccccc1)NC(=O)[C@@H]1CCCN1C(=O)[C@H](CCC(=O)O)NC(=O)[C@H](CO)NC(=O)[C@H](CO)NC(=O)[C@H](Cc1c[nH]cn1)NC(=O)[C@H](Cc1c[nH]cn1)NC(=O)[C@H](CC(C)C)NC(=O)[C@H](Cc1ccccc1)NC(=O)[C@H](CCC(=O)O)NC(=O)[C@H](C)NC(=O)[C@H](CC(C)C)NC(=O)[C@H](CCCNC(=N)N)NC(=O)[C@H](CCC(N)=O)NC(=O)[C@@H](NC(=O)[C@H](CCC(N)=O)NC(=O)[C@H](C)NC(=O)[C@@H](NC(=O)[C@H](CO)NC(=O)[C@H](CC(C)C)NC(=O)[C@H](Cc1c[nH]cn1)NC(=O)[C@H](CO)NC(=O)[C@H](C)NC(=O)CC[C@H](NC(=O)CCCCCCCCCCCCCCCCC(=O)O)C(=O)O)[C@@H](C)O)[C@@H](C)O)C(=O)N1CCC[C@H]1C(=O)N[C@@H](CO)C(=O)N[C@@H](CO)C(=O)N[C@H](C(=O)N[C@@H](CCC(=O)O)C(=O)N[C@H](C(=O)NCC(=O)N1CCC[C@H]1C(=O)N[C@@H](CCC(=O)O)C(=O)N[C@H](C(=O)N1CCC[C@H]1C(N)=O)[C@@H](C)O)C(C)C)[C@@H](C)O [Compound 27, N^1-[(4S)-4-carboxy-4-(17-carboxyheptadecanoylamino)butanoyl]-[Ala1,Ser2,His3,Leu4,Ser5,Ala7,Gln8,Glu14,His17,Glu21,Pro22,Pro27,Glu31,Pro34,Glu35,Pro37]-human amylin] ({C18 diacid-γGlu}-ASHLSTAQTQRLAEFLHHSSEPFGAIPSSTEVGPETP-NH2) |  | 2.68 pM | 1.78 pM |  | 
CC[C@H](C)[C@H](NC(=O)[C@@H]1CCCN1C(=O)CNC(=O)[C@H](Cc1ccccc1)NC(=O)[C@H](CC(N)=O)NC(=O)[C@H](CC(=O)O)NC(=O)[C@H](CO)NC(=O)[C@H](CO)NC(=O)[C@H](Cc1c[nH]cn1)NC(=O)[C@H](Cc1c[nH]cn1)NC(=O)[C@H](CC(C)C)NC(=O)[C@H](Cc1ccccc1)NC(=O)[C@H](CCC(=O)O)NC(=O)[C@H](C)NC(=O)[C@H](CC(C)C)NC(=O)[C@H](CCCNC(=N)N)NC(=O)[C@H](C)NC(=O)[C@@H](NC(=O)[C@H](CCC(N)=O)NC(=O)[C@H](C)NC(=O)[C@@H](NC(=O)[C@H](CO)NC(=O)[C@H](CC(C)C)NC(=O)[C@H](Cc1c[nH]cn1)NC(=O)[C@H](CO)NC(=O)[C@H](C)NC(=O)CC[C@H](NC(=O)CCCCCCCCCCCCCCCCC(=O)O)C(=O)O)[C@@H](C)O)[C@@H](C)O)C(=O)N[C@@H](CC(C)C)C(=O)N1CCC[C@H]1C(=O)N1CCC[C@H]1C(=O)N[C@H](C(=O)N[C@@H](CC(=O)O)C(=O)N[C@H](C(=O)NCC(=O)N[C@@H](CO)C(=O)N[C@@H](CC(N)=O)C(=O)N[C@H](C(=O)N[C@@H](Cc1ccc(O)cc1)C(N)=O)[C@@H](C)O)C(C)C)[C@@H](C)O [Compound 38, N^1-[(4S)-4-carboxy-4-(17-carboxyheptadecanoylamino)butanoyl]-[Ala1,Ser2,His3,Leu4,Ser5,Ala7,Gln8,Ala10,Glu14,His17,Asp21,Pro25,Pro28,Pro29,Asp31]-human amylin] ({C18 diacid-γGlu}-ASHLSTAQTARLAEFLHHSSDNFGPILPPTDVGSNTY-NH2) |  | 1.97 pM | 3.15 pM |  | 
CC[C@H](C)[C@H](NC(=O)[C@@H]1CCCN1C(=O)CNC(=O)[C@H](Cc1ccccc1)NC(=O)[C@H](Cc1c[nH]cn1)NC(=O)[C@H](Cc1c[nH]cn1)NC(=O)[C@H](CC(C)C)NC(=O)[C@H](Cc1ccccc1)NC(=O)[C@H](CCC(=O)O)NC(=O)[C@H](C)NC(=O)[C@H](CC(C)C)NC(=O)[C@H](CCCNC(=N)N)NC(=O)[C@H](C)NC(=O)[C@@H](NC(=O)[C@H](CCC(N)=O)NC(=O)[C@H](C)NC(=O)[C@@H](NC(=O)[C@H](CO)NC(=O)[C@H](CC(C)C)NC(=O)[C@H](CO)NC(=O)CNC(=O)[C@H](C)NC(=O)CC[C@H](NC(=O)CCCCCCCCCCCCCCCCC(=O)O)C(=O)O)[C@@H](C)O)[C@@H](C)O)C(=O)N[C@@H](CC(C)C)C(=O)N1CCC[C@H]1C(=O)N1CCC[C@H]1C(=O)N[C@H](C(=O)N[C@@H](CC(=O)O)C(=O)N[C@H](C(=O)NCC(=O)N[C@@H](CO)C(=O)N[C@@H](CCC(=O)O)C(=O)N[C@H](C(=O)N1CCC[C@H]1C(N)=O)[C@@H](C)O)C(C)C)[C@@H](C)O [Compound 15, N^1-[(4S)-4-carboxy-4-(17-carboxyheptadecanoylamino)butanoy]-[Ala1,Gly2,Ser3,Leu4,Ser5,Ala7,Gln8,Ala10,Glu14,His17,Pro25,Pro28,Pro29,Asp31,Glu35,Pro37],des-(19-22)-human amylin] ({C18 diacid-γGlu}-AGSLSTAQTARLAEFLHHFGPILPPTDVGSETP-NH2) | 0.29 kg/L |  | 1.01 pM | 85.9 h | 21.07 kg·h/L
